The source of these data is ChEMBL document CHEMBL1142152, “Inhibition of anthrax protective antigen outside and inside the cell” (Antimicrob Agents Chemother, 2007).

Calls of active or inactive are those of the source. The calls are words filed in the database; no cut-off is given here.

Holding throughout (format): functional, cell-based
Assay [1] has as its system CHO. Briefly: Blockade of PA-induced toxicity in CHO cells expressing TEM8 assessed as cell viability at 5 uM after 48 hrs. The conditions noted are these: Cricetulus griseus.
The test system of a further assay is KDR. Description: Protection of SLT-VEGF induced toxicity in 293/KDR cells. Conditions: Homo sapiens.
Assay [2] has as its system CHO. Briefly: Inhibition of PA-induced apoptosis in CHO cells expressing TEM8 receptor cells at 5 uM after 24 hrs. Conditions: Cricetulus griseus.
The test system of assay [3] is CHO. Briefly: Inhibition of LFn-Lip uptake in CHO cells expressing TEM8 receptor at 100 uM after 1 hrs. Conditions: Cricetulus griseus.
Assay [4] relates to CHO. Briefly: Inhibition of LFn-A1 uptake in CHO cells expressing TEM8 receptor at 100 uM. Conditions: Cricetulus griseus.
The species entered for a further assay is Mus musculus. Description: Cell viability in mouse RAW264.7 cells by LeTx protection assay.

For orientation: IC50 means the concentration at which inhibition is half-maximal. Read a low IC50 as greater potency in that assay. With `NCCCSC[C@H]1O[C@@H]2O[C@H]3[C@H](O)[C@@H](O[C@H]4[C@H](O)[C@@H](O)[C@@H](O[C@H]5[C@H](O)[C@@H](O)[C@@H](O[C@H]6[C@H](O)[C@@H](O)[C@@H](O[C@H]7[C@H](O)[C@@H](O)[C@@H](O[C@H]8[C@H](O)[C@@H](O)[C@@H](OC1[C@H](O)[C@H]2O)O[C@@H]8CSCCCN)O[C@@H]7CSCCCN)O[C@@H]6CSCCCN)O[C@@H]5CSCCCN)O[C@@H]4CSCCCN)[C@@H](O)O[C@@H]3CSCCCN`, the result in the assay with CHO [1], with CHO [2] and with CHO [4] was Active. Moreover, the result in the assay on KDR and in the assay on CHO [3] was inactive. The compound further displayed an IC50 in the assay listed under Mus musculus of 7 µM.
